Results from patent publication US9856348B2, “Multifunctional degradable nanoparticles with control over size and functionalities” (Vanderbilt University, priority 2007, dated 2018).

Assays:
[1] = tested on: mice with microbead-elevated intraocular pressure
Procedure: Two groups of mice (N=3 each) were compared to determine the effect of a single intravitreal injection of brimonidine-laced nanoparticle relative to a single topical drop (eyedrop) of clinical-grade brimonidine. For each mouse, intraocular pressure (IOP) was acutely elevated by an injection (1 μl) of polystyrene microbeads into the anterior chamber of the eye. This induces a 35-40% elevation in IOP that persists for 3-4 weeks. […] IOP was tracked using TonoPen XL measurements until any lowering effect was dissipated.

[2] = tested on: human microvascular endothelial cells (HMEC); assay: Internalization of FITC-dendrimer conjugates, temperature effect and controls; format: cell-based; conditions: 10 uM, 60 min, 37° C.
Procedure: Internalization of FD-1 and FD-2 in mammalian cells was assessed using two different cell lines and a previously described method [Futaki, S.; Nakase, I.; Suzuki, T.; Youjun, Y.; Sugiura, Y. Biochemistry 2002, 41, 7925.] with NIH-3T3 fibroblasts and HMEC (human microvascular endothelial cells) and a Zeiss LSM 510 confocal microscope. […] [Futaki, S.; Nakase, I.; Suzuki, T.; Youjun, Y.; Sugiura, Y. Biochemistry 2002, 41, 7925.; Vivès, E.; Brodin, P.; Lebleu, B. J. Biol. Chem. 1997, 272, 16010.] Furthermore, the extent of internalization increased in an incubation time-dependent manner, and it was observed that after just 10 min, the fluorescence intensity of cells treated with FD-2 was near saturation. […] L. Org. Lett. 2005, 7, 4815.] but also regulate the subcellular localization of the molecule and its putative cargo. […] Therefore, the dendrimer with a hexyl spacer crosses the cell membrane faster than the molecule with an ethyl chain. On the other hand, the localization patterns can also be controlled by the length of the spacer. FD-1 with the short spacer appeared to be localized everywhere in the cell, but highly concentrated in the nucleus. […] These translocation features of guanidinlyated dendritic scaffolds as carriers can be important for intracellular delivery of cargo molecules to specific subcellular compartments (e.g., cytosol or nucleus). […]

Molecule | IOP one day after application ([1]; single application (1 μl) on day 4 after microbead injection) | time after administration at which IOP returned to elevated levels ([1]; single topical application (1 μl)) | fluorescence of treated cells (control experiments) [2]
Brc1c(NC2=NCCN2)ccc2nccnc12 [topical brimonidine, 5-Bromo-N-(4,5-dihydro-1H-imidazol-2-yl)quinoxalin-6-amine] | normal levels | Six | 
fluorescein isothiocyanate [free FITC] |  |  | no
